Measured values published in US11253517B2, “Small molecule regulators of steroid receptor coactivators and methods of use thereof” (BAYLOR COLLEGE OF MEDICINE, priority 2016, dated 2022).

Tests used:
BT-474 cells = assay: IC50 in BT-474 cells, 72 hours incubation; assay type: cell-based
Method: (§1) The compounds described herein were synthesized as described in Example 1. The IC50 values were measured in MDA-MB-468, BT-474, and MCF-7 cells by incubating a series of concentrations of the corresponding compounds for 72 hours.
(§2) In Tables 1 and 2, “−” represents IC50 or EC50 values greater than 10 μM; “+” represents IC50 or EC50 values from greater than 1 μM to 10 μM; “++” represents IC50 or EC50 values from 0.1 μM to 1 μM; and “+++” represents IC50 or EC50 values less than 0.1 μM.

MCF-7 cells = assay: IC50 in MCF-7 cells, 72 hours incubation; assay type: cell-based
Method: as §1, §2

PKCa = target: T1, PKCa (Homo sapiens, UniProt P17252); assay: Kinase-Glo Luminescent Kinase Assay; assay type: biochemical
T1 construct: purchased Promega
Method: (§3) SI-12 was also tested for its ability to disrupt kinase activity. The effects of the compound were tested on a panel of 24 kinases using a Kinase-Glo Luminescent Kinase Assay system (Promega; Madison, Wis.). SI-12 was tested, at concentrations of 1000 nM, 50 nM, and 5 nM, for its ability to interfere with recombinant kinases in the assay system. The amount of ATP to ADP conversion in the presence of SI-12 was compared to a DMSO vehicle control. The values shown in Table 3 represent the percentage of kinase activity compared to a DMSO vehicle control.
(§4) In Table 3, “−” represents less than 20% inhibition; “+” represents from 20% to 40% inhibition; “++” represents from 40% to 60% inhibition; and “+++” represents greater than 60% inhibition.

CHK1 = target: T2, CHK1 (Homo sapiens, UniProt O14757); assay: Kinase-Glo Luminescent Kinase Assay; assay type: biochemical
T2 construct: purchased Promega
T2 sequence (O14757 1-476): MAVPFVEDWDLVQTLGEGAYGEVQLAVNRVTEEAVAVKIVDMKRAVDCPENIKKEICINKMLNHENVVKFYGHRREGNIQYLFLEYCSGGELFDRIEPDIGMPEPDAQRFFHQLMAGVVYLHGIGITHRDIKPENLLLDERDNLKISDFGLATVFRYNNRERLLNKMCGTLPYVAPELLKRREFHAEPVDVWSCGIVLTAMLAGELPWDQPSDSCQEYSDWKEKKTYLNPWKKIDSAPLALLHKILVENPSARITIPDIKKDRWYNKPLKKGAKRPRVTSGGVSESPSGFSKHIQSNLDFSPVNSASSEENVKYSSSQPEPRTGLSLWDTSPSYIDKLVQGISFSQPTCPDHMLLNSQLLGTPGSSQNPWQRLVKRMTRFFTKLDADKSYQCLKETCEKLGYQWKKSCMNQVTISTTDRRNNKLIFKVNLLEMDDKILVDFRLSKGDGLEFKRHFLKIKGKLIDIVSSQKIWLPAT
Method: as §3, §4

AKT1 = target: T3, AKT1 (Homo sapiens, UniProt P31749); assay: Kinase-Glo Luminescent Kinase Assay; assay type: biochemical
T3 construct: purchased Promega
Method: as §3, §4

LCK = target: T4, LCK (Homo sapiens, UniProt P06239); assay: Kinase-Glo Luminescent Kinase Assay; assay type: biochemical
T4 construct: purchased Promega
Method: as §3, §4

CDK2/CyclinE1 = target: T5, CDK2/CyclinE1 (Homo sapiens, UniProt P24941); assay: Kinase-Glo Luminescent Kinase Assay; assay type: biochemical
T5 construct: purchased Promega
Method: as §3, §4

Aurora A = target: T6, Aurora A (Homo sapiens, UniProt O14965); assay: Kinase-Glo Luminescent Kinase Assay; assay type: biochemical
T6 construct: purchased Promega
T6 sequence (O14965 1-403): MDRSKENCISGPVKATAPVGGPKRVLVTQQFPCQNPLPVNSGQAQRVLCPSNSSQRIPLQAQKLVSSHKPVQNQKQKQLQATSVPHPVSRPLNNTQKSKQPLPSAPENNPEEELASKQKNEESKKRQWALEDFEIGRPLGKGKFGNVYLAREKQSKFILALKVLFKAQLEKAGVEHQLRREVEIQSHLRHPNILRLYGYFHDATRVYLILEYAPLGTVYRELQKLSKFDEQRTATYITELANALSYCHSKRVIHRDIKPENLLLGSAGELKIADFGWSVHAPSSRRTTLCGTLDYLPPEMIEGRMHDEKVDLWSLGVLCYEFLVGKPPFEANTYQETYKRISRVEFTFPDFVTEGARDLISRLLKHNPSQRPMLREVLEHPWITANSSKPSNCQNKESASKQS
Method: as §3, §4

AMPK A1 /B1/G2 = target: T7, AMPK A1 /B1/G2 (Homo sapiens, UniProt Q13131); assay: Kinase-Glo Luminescent Kinase Assay; assay type: biochemical
T7 construct: purchased Promega
Method: as §3, §4

IKKb = target: T8, IKKb (Homo sapiens, UniProt O14920); assay: Kinase-Glo Luminescent Kinase Assay; assay type: biochemical
T8 construct: purchased Promega
T8 sequence (O14920 1-756): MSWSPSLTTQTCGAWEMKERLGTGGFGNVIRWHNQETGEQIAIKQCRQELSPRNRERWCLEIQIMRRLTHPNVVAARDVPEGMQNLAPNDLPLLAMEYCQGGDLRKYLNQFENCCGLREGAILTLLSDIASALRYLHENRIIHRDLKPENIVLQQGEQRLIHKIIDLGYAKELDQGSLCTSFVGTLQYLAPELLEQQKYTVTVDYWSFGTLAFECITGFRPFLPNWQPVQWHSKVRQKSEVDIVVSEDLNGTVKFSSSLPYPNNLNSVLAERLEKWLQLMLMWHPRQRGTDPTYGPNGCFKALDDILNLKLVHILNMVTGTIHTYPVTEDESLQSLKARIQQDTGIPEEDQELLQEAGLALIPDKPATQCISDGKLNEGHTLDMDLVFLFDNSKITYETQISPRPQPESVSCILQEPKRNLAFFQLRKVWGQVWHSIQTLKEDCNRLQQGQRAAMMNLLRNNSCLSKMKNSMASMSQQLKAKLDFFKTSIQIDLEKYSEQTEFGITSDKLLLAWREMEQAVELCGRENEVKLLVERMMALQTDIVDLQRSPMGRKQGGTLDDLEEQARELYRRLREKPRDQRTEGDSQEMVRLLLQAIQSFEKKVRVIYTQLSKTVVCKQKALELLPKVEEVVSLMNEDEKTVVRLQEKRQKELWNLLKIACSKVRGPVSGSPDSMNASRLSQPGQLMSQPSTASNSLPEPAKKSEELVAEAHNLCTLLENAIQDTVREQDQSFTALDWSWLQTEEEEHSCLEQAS
Method: as §3, §4

T7 sequence (Q13131 whole entry): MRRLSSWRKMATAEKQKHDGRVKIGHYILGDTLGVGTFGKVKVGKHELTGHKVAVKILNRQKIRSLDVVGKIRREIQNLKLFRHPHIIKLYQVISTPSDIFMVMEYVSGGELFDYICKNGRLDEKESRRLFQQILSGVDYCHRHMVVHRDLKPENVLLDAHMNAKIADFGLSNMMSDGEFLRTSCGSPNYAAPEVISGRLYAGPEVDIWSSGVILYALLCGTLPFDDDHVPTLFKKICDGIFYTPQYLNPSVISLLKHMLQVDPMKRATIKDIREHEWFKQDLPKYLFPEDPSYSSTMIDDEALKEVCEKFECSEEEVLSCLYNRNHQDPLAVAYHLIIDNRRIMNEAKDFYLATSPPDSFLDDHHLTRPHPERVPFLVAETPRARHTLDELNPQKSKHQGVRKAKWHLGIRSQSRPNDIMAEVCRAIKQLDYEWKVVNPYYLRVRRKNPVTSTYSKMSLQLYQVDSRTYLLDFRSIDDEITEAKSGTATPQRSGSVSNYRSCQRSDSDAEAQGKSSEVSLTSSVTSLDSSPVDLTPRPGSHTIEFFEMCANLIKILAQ
T7 sequence (Q9Y478 whole entry partner): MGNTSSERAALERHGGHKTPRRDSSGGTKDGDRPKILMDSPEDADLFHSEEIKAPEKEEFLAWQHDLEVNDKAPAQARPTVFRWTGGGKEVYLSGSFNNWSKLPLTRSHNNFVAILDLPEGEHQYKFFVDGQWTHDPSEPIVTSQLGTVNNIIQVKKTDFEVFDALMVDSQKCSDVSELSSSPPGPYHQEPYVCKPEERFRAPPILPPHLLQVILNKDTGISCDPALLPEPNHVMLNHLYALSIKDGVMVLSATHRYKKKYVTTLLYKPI
T7 sequence (Q9UGJ0 whole entry partner): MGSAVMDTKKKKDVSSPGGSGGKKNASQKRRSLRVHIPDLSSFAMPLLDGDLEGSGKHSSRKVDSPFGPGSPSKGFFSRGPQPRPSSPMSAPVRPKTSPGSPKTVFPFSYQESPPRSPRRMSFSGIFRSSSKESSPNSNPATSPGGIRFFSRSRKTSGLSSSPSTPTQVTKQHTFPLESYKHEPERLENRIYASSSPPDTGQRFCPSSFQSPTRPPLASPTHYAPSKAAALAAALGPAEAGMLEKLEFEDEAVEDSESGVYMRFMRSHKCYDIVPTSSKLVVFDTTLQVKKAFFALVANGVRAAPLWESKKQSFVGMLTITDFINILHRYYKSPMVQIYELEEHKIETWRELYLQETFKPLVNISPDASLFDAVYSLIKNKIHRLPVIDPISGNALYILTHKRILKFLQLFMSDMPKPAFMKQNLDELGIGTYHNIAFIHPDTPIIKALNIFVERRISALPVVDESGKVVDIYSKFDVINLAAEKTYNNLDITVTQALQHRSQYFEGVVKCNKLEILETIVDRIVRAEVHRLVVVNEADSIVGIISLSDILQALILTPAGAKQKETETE
T4 sequence (P06239 whole entry): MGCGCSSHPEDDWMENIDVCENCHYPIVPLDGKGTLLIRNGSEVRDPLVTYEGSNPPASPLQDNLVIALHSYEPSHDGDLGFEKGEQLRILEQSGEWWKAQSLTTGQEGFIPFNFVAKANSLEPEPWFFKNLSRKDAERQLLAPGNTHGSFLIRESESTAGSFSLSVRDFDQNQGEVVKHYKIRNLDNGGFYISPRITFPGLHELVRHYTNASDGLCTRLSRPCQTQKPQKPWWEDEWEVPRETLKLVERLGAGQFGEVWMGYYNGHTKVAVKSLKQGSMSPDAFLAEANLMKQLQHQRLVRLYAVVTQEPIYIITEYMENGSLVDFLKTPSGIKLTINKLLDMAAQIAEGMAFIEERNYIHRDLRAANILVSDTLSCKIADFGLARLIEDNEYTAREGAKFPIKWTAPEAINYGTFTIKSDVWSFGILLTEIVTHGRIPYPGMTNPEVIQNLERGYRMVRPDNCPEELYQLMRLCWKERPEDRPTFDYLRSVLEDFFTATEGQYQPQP
T3 sequence (P31749 whole entry): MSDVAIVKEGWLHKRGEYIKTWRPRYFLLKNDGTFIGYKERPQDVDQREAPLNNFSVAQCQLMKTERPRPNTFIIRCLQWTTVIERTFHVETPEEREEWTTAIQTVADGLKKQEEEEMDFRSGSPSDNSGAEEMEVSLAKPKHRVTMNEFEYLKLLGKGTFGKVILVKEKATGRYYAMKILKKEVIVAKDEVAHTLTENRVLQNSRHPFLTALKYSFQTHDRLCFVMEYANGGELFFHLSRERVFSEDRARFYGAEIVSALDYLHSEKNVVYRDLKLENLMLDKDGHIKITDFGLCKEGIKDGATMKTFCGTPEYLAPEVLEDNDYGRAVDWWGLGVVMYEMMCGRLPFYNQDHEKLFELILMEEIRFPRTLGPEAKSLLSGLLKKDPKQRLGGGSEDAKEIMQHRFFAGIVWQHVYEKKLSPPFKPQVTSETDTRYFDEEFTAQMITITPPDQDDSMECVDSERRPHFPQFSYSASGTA

Structure (SMILES): CC(=NNc1nc2cc(F)c(F)cc2n1C)c1ccc(F)cn1 [SI-12]
- IC50 (BT-474 cells): < 0.1 µM
- IC50 (MCF-7 cells): < 0.1 µM
- PKCa kinase inhibition (PKCa; 5 nM): − (less than 20% inhibition)
- PKCa kinase inhibition (PKCa; 50 nM): − (less than 20% inhibition)
- PKCa kinase inhibition (PKCa; 1000 nM): − (less than 20% inhibition)
- CHK1 kinase inhibition (CHK1; 5 nM): − (less than 20% inhibition)
- CHK1 kinase inhibition (CHK1; 50 nM): − (less than 20% inhibition)
- CHK1 kinase inhibition (CHK1; 1000 nM): − (less than 20% inhibition)
- AKT1 kinase inhibition (AKT1; 5 nM): − (less than 20% inhibition)
- AKT1 kinase inhibition (AKT1; 50 nM): − (less than 20% inhibition)
- AKT1 kinase inhibition (AKT1; 1000 nM): − (less than 20% inhibition)
- LCK kinase inhibition (LCK; 5 nM): − (less than 20% inhibition)
- LCK kinase inhibition (LCK; 50 nM): − (less than 20% inhibition)
- LCK kinase inhibition (LCK; 1000 nM): − (less than 20% inhibition)
- CDK2/CyclinE1 kinase inhibition (CDK2/CyclinE1; 5 nM): − (less than 20% inhibition)
- CDK2/CyclinE1 kinase inhibition (CDK2/CyclinE1; 50 nM): − (less than 20% inhibition)
- CDK2/CyclinE1 kinase inhibition (CDK2/CyclinE1; 1000 nM): − (less than 20% inhibition)
- Aurora A kinase inhibition (Aurora A; 5 nM): − (less than 20% inhibition)
- Aurora A kinase inhibition (Aurora A; 50 nM): − (less than 20% inhibition)
- Aurora A kinase inhibition (Aurora A; 1000 nM): − (less than 20% inhibition)
- AMPK A1 /B1/G2 kinase inhibition (AMPK A1 /B1/G2; 5 nM): − (less than 20% inhibition)
- AMPK A1 /B1/G2 kinase inhibition (AMPK A1 /B1/G2; 50 nM): − (less than 20% inhibition)
- AMPK A1 /B1/G2 kinase inhibition (AMPK A1 /B1/G2; 1000 nM): − (less than 20% inhibition)
- IKKb kinase inhibition (IKKb; 5 nM): ++ (from 40% to 60% inhibition)
- IKKb kinase inhibition (IKKb; 50 nM): +++ (greater than 60% inhibition)
- IKKb kinase inhibition (IKKb; 1000 nM): +++ (greater than 60% inhibition)
